From patent publication US20250059171A1 (Hoffmann-La Roche Inc., priority 2021, published 2025)

Legend:
MERS-CoV 3CLpro = MERS-CoV 3CLpro (Middle East respiratory syndrome-related coronavirus, UniProt K9N7C7); test: biochemical
HCoV-229E 3CLpro = HCoV-229E 3CLpro (Human coronavirus 229E, UniProt P0C6X1); test: HCoV-229E 3CLpro inhibition assay (FRET); type: biochemical
SARS-CoV-2 3CLpro = SARS-CoV-2 3CLpro (Severe acute respiratory syndrome coronavirus 2, UniProt P0DTD1); test: biochemical
SARS-CoV 3CLpro = SARS-CoV 3CLpro (Severe acute respiratory syndrome coronavirus, UniProt P0C6X7); test: biochemical

Sequence of HCoV-229E 3CLpro (P0C6X1 2966-3267): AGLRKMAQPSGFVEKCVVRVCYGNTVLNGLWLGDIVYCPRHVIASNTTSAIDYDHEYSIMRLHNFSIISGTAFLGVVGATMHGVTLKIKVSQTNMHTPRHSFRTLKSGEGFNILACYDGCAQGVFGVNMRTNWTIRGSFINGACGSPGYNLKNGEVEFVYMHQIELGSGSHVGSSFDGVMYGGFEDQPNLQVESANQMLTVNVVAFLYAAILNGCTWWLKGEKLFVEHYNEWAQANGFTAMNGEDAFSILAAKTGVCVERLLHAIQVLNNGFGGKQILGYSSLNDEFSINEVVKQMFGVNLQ
Sequence of MERS-CoV 3CLpro (K9N7C7 3248-3553): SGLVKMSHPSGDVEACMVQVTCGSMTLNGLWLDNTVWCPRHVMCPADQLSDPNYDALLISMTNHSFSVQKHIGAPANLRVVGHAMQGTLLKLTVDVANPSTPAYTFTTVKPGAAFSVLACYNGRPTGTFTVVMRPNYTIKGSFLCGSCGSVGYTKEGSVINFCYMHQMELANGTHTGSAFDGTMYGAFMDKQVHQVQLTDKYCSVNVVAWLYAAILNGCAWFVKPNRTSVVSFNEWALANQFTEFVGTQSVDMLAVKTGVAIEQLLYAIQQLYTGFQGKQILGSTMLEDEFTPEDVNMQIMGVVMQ

| SMILES | IC50 (MERS-CoV 3CLpro) | IC50 (HCoV-229E 3CLpro) | IC50 (SARS-CoV-2 3CLpro) | IC50 (SARS-CoV 3CLpro) |
| --- | --- | --- | --- | --- |
| CCC(CC)[C@H](NC(=O)C(F)F)C(=O)N1C[C@@H]2CCC[C@@H]2[C@H]1C(=O)NN(C[C@@H]1CCNC1=O)C(=O)[C@H](F)Cl [Example 136, N-[(1S)-1-[(3S,3aS,6aR)-3-[[[(2R)-2-chloro-2-fluoro-acetyl]-[[(3S)-2-oxopyrrolidin-3-yl]methyl]amino]carbamoyl]-3,3a,4,5,6,6a-hexahydro-1H-cyclopenta[c]pyrrole-2-carbonyl]-2-ethyl-butyl]-2,2-difluoro-acetamide] | 0.074 µM | 0.055 µM | 0.016 µM | 0.015 µM |
| CC(C)(C)[C@H](NC(=O)C1CC(F)(F)C1)C(=O)N1C[C@H]2[C@@H]([C@H]1C(=O)NN(C[C@@H]1CCNC1=O)C(=O)[C@@H](F)Cl)C2(C)C [Example 93, N-[(1S)-1-[(1R,2S,5S)-2-[[[(2S)-2-chloro-2-fluoro-acetyl]-[[(3S)-2-oxopyrrolidin-3-yl]methyl]amino]carbamoyl]-6,6-dimethyl-3-azabicyclo[3.1.0]hexane-3-carbonyl]-2,2-dimethyl-propyl]-3,3-difluoro-cyclobutanecarboxamide] | 0.094 µM | 0.042 µM | 0.031 µM | 0.054 µM |
| CC(C)(C)[C@H](NC(=O)C1(F)CCC1)C(=O)N1C[C@@H]2CCC[C@@H]2[C@H]1C(=O)NN(C[C@@H]1CCNC1=O)C(=O)[C@H](F)Cl [Example 97, N-[(1S)-1-[(3S,3aS,6aR)-3-[[[(2R)-2-chloro-2-fluoro-acetyl]-[[(3S)-2-oxopyrrolidin-3-yl]methyl]amino]carbamoyl]-3,3a,4,5,6,6a-hexahydro-1H-cyclopenta[c]pyrrole-2-carbonyl]-2,2-dimethyl-propyl]-1-fluoro-cyclobutanecarboxamide] | 0.208 µM | 0.074 µM | 0.011 µM | 0.013 µM |
| CC(C)(C)[C@H](NC(=O)[C@@H]1CC1(F)F)C(=O)N1C[C@@H]2CCC[C@@H]2[C@H]1C(=O)NN(C[C@@H]1CCNC1=O)C(=O)[C@H](F)Cl [Example 99, (1S)—N-[(1S)-1-[(3S,3aS,6aR)-3-[[[(2R)-2-chloro-2-fluoro-acetyl]-[[(3S)-2-oxopyrrolidin-3-yl]methyl]amino]carbamoyl]-3,3a,4,5,6,6a-hexahydro-1H-cyclopenta[c]pyrrole-2-carbonyl]-2,2-dimethyl-propyl]-2,2-difluoro-cyclopropanecarboxamide] | 0.081 µM | 0.03 µM | 0.008 µM | 0.012 µM |
| CC[C@H](C)[C@H](NC(=O)C1CC(F)(F)C1)C(=O)N1C[C@H]2[C@@H]([C@H]1C(=O)NN(C[C@@H]1CCNC1=O)C(=O)[C@@H](F)Cl)C2(C)C [Example 108, N-[(1S,2S)-1-[(1R,2S,5S)-2-[[[(2S)-2-chloro-2-fluoro-acetyl]-[[(3S)-2-oxopyrrolidin-3-yl]methyl]amino]carbamoyl]-6,6-dimethyl-3-azabicyclo[3.1.0]hexane-3-carbonyl]-2-methyl-butyl]-3,3-difluoro-cyclobutanecarboxamide] | 0.127 µM | 0.05 µM | 0.043 µM | 0.074 µM |
| CCC(C)(C)[C@H](NC(=O)C1(F)CC1)C(=O)N1C[C@H]2[C@@H]([C@H]1C(=O)NN(C[C@@H]1CCNC1=O)C(=O)[C@H](F)Cl)C2(C)C [Example 143, N-[(1S)-1-[(1R,2S,5S)-2-[[[(2R)-2-chloro-2-fluoro-acetyl]-[[(3S)-2-oxopyrrolidin-3-yl]methyl]amino]carbamoyl]-6,6-dimethyl-3-azabicyclo[3.1.0]hexane-3-carbonyl]-2,2-dimethyl-butyl]-1-fluoro-cyclopropanecarboxamide] | 0.086 µM | 0.028 µM | 0.008 µM | 0.013 µM |
| CC[C@H](C)[C@H](NC(=O)[C@@H](F)Cl)C(=O)N1C[C@H]2[C@@H]([C@H]1C(=O)NN(C[C@@H]1CCNC1=O)C(=O)[C@@H](F)Cl)C2(C)C [Example 186, (2S)-2-chloro-N-[(1S,2S)-1-[(1R,2S,5S)-2-[[[(2S)-2-chloro-2-fluoro-acetyl]-[[(3S)-2-oxopyrrolidin-3-yl]methyl]amino]carbamoyl]-6,6-dimethyl-3-azabicyclo[3.1.0]hexane-3-carbonyl]-2-methyl-butyl]-2-fluoro-acetamide] | 0.069 µM | 0.049 µM | 0.013 µM | 0.023 µM |
| CC(C)(C)[C@H](NC(=O)C(F)F)C(=O)N1C[C@@H]2CCC[C@@H]2[C@H]1C(=O)NN(C[C@@H]1CCNC1=O)C(=O)[C@H](F)Cl [Example 28, N-[(1S)-1-[(3S,3aS,6aR)-3-[[[(2R)-2-chloro-2-fluoro-acetyl]-[[(3S)-2-oxopyrrolidin-3-yl]methyl]amino]carbamoyl]-3,3a,4,5,6,6a-hexahydro-1H-cyclopenta[c]pyrrole-2-carbonyl]-2,2-dimethyl-propyl]-2,2-difluoro-acetamide] | 1.02 µM | 0.396 µM | 0.008 µM | 0.038 µM |
| CC(C)(C)[C@H](Nc1ccccn1)C(=O)N1C[C@@H]2CCC[C@@H]2[C@H]1C(=O)NN(C[C@@H]1CCNC1=O)C(=O)[C@H](F)Cl [Example 184] | 0.275 µM | 0.086 µM | 0.016 µM | 0.041 µM |
| CC[C@H](C)[C@H](NC(=O)C(C)(C)C)C(=O)N1C[C@@H]2CCC[C@@H]2[C@H]1C(=O)NN(C[C@@H]1CCNC1=O)C(=O)[C@H](F)Cl [Example 44, N-[(1S,2S)-1-[(3S,3aS,6aR)-3-[[[(2R)-2-chloro-2-fluoro-acetyl]-[[(3S)-2-oxopyrrolidin-3-yl]methyl]amino]carbamoyl]-3,3a,4,5,6,6a-hexahydro-1H-cyclopenta[c]pyrrole-2-carbonyl]-2-methyl-butyl]-2,2-dimethyl-propanamide] | 0.055 µM | 0.023 µM | 0.008 µM | 0.011 µM |
| CC1(C)[C@@H]2[C@@H](C(=O)NN(C[C@@H]3CCNC3=O)C(=O)[C@@H](F)Cl)N(C(=O)[C@@H](NC(=O)C3(F)CC3)C3CCC3)C[C@@H]21 [Example 157, N-[(1S)-2-[(1R,2S,5S)-2-[[[(2S)-2-chloro-2-fluoro-acetyl]-[[(3S)-2-oxopyrrolidin-3-yl]methyl]amino]carbamoyl]-6,6-dimethyl-3-azabicyclo[3.1.0]hexan-3-yl]-1-cyclobutyl-2-oxo-ethyl]-1-fluoro-cyclopropanecarboxamide] | 0.149 µM | 0.06 µM | 0.044 µM | 0.058 µM |
| CCC(C)(C)[C@H](NC(=O)C1CC1)C(=O)N1C[C@@H]2CCC[C@@H]2[C@H]1C(=O)NN(C[C@@H]1CCCNC1=O)C(=O)[C@H](F)Cl [Example 167a, N-[(1S)-1-[(3S,3aS,6aR)-3-[[[(2R)-2-chloro-2-fluoro-acetyl]-[[(3S)-2-oxo-3-piperidyl]methyl]amino]carbamoyl]-3,3a,4,5,6,6a-hexahydro-1H-cyclopenta[c]pyrrole-2-carbonyl]-2,2-dimethyl-butyl]cyclopropanecarboxamide] | 0.169 µM | 0.053 µM | 0.01 µM | 0.015 µM |
| CC(C)(C)[C@H](NC(=O)C1(F)CC1)C(=O)N1C[C@H]2[C@@H]([C@H]1C(=O)NN(C[C@@H]1CCNC1=O)C(=O)[C@@H](F)Cl)C2(C)C [Example 94, N-[(1S)-1-[(1R,2S,5S)-2-[[[(2S)-2-chloro-2-fluoro-acetyl]-[[(3S)-2-oxopyrrolidin-3-yl]methyl]amino]carbamoyl]-6,6-dimethyl-3-azabicyclo[3.1.0]hexane-3-carbonyl]-2,2-dimethyl-propyl]-1-fluoro-cyclopropanecarboxamide] | 0.136 µM | 0.059 µM | 0.021 µM | 0.029 µM |
| CC(C)(C)[C@H](NC(=O)[C@@H]1CC1(F)F)C(=O)N1C[C@@H]2CCC[C@@H]2[C@H]1C(=O)NN(C[C@@H]1CCCNC1=O)C(=O)[C@H](F)Cl [Example 196, (1S)—N-[(1S)-1-[(3S,3aS,6aR)-3-[[[(2R)-2-chloro-2-fluoro-acetyl]-[[(3S)-2-oxo-3-piperidyl]methyl]amino]carbamoyl]-3,3a,4,5,6,6a-hexahydro-1H-cyclopenta[c]pyrrole-2-carbonyl]-2,2-dimethyl-propyl]-2,2-difluoro-cyclopropanecarboxamide] | 0.089 µM | 0.038 µM | 0.011 µM | 0.014 µM |
| CCC(C)(C)[C@H](NC(=O)C1CC1)C(=O)N1C[C@H]2[C@@H]([C@H]1C(=O)NN(C[C@@H]1CCNC1=O)C(=O)[C@H](F)Cl)C2(C)C [Example 142, N-[(1S)-1-[(1R,2S,5S)-2-[[[(2R)-2-chloro-2-fluoro-acetyl]-[[(3S)-2-oxopyrrolidin-3-yl]methyl]amino]carbamoyl]-6,6-dimethyl-3-azabicyclo[3.1.0]hexane-3-carbonyl]-2,2-dimethyl-butyl]cyclopropanecarboxamide] | 0.083 µM | 0.031 µM | 0.01 µM | 0.013 µM |
| CCC(CC)[C@H](NC(=O)C1(F)CC1)C(=O)N1C[C@H]2[C@@H]([C@H]1C(=O)NN(C[C@@H]1CCNC1=O)C(=O)[C@H](F)Cl)C2(C)C [Example 132, N-[(1S)-1-[(1R,2S,5S)-2-[[[(2R)-2-chloro-2-fluoro-acetyl]-[[(3S)-2-oxopyrrolidin-3-yl]methyl]amino]carbamoyl]-6,6-dimethyl-3-azabicyclo[3.1.0]hexane-3-carbonyl]-2-ethyl-butyl]-1-fluoro-cyclopropanecarboxamide] | 0.106 µM | 0.025 µM | 0.01 µM | 0.014 µM |
| CC(C)(C)[C@H](NC(=O)C(F)(F)F)C(=O)N1C[C@H]2[C@@H]([C@H]1C(=O)NN(C[C@@H]1CCCNC1=O)C(=O)[C@H](F)Cl)C2(C)C (single isomer, unassigned) [Example 163b] | 0.469 µM | 0.104 µM | 0.017 µM | 0.033 µM |
